Results published in patent US20170216350A1, “COMPOSITIONS OF ALUMINUM FLUORIDE AND METHODS OF USE THEREOF FOR THE TREATMENT AND PREVENTION OF ACTINIC KERATOSIS AND SUN-INDUCED DAMAGES” (priority 2012, published 2017).

System: actinic keratosis lesions
Conditions: twice daily
Source text: A cream was applied on dry skin, on the whole forehead, twice daily. Aluminum fluoride at 0.30% w/w was used in a base cream containing Caprylic/Capric acids, sulfur, resorcinol, medium chain triglycerides, PEG 400, Pluronic F127, Ylang ylang oil and water .
Patient 2 is a person having actinic keratosis on their nose, in particular, two ulcers of about 1 mm each. The aluminum fluoride composition was at 0.30% w/w, and the base cream was modified to a cream containing deionized water, arachidyl alcohol, behenyl alcohol, arachidyl glucoside, montanoV 202, cetearyl alcohol, capric/caprilic triglyceride, isopropyl palmitate, steareth-2, dimethicon, steareth-20, allantoin, propylene glycol, Methylisothiazolinone (sheromix MT) and sodium benzoate.
A cream was applied on dry skin, on the cheek, twice daily. Aluminum fluoride at 0.30% w/w was used in a base cream containing Caprylic/Capric triglycerides, a polyethylene glycol component, hydrophilic non-ionic surfactant and purified water.
A cream was applied on dry skin, on the whole forehead, twice daily. Aluminum fluoride at 0.30% w/w was used in a base cream containing Caprylic/Capric triglycerides, a polyethylene glycol component, hydrophilic non-ionic surfactant and purified water.

## aluminum fluoride
Patient 1, 8th decade, 0.30% w/w in base cream (Caprylic/Capric acids, sulfur, resorcinol, MCT, PEG 400, Pluronic F127), whole forehead, 3 weeks
  actinic keratosis lesions (FIG. 1A/1B): gradual disappearance of lesions
Patient 2, 0.30% w/w in modified base cream
  vascularization (FIG. 2(ii) compared to FIG. 2(i)): major decrease in vascularization
Patient 2, 0.30% w/w in modified base cream, after approximately three weeks
  actinic keratosis ulcers on nose (two ulcers of about 1 mm each): closure of the first ulcer and disappearance of the second ulcer
Patient 6, 6th decade, 0.30% w/w in base cream (Caprylic/Capric triglycerides, polyethylene glycol component, non-ionic surfactant, water), cheek, 12 weeks
  actinic keratosis lesions (FIG. 3A/3B): disappearance of lesions
Patient 13, 6th decade, 0.30% w/w in base cream (Caprylic/Capric triglycerides, polyethylene glycol component, non-ionic surfactant, water), whole forehead, 10 weeks
  actinic keratosis lesions (FIG. 4A/4B): disappearance of lesions
